In ChEMBL document CHEMBL1149183, “Novel benzo[1,4]diazepin-2-one derivatives as endothelin receptor antagonists” (J Med Chem, 2004):

What was measured:
Endothelin-1 receptor = target: T1, Endothelin-1 receptor (Homo sapiens, UniProt P25101); experiment: Antagonist activity towards human recombinant Endothelin A receptor expressed in chinese hamster ovary (CHO) cells determined using [125I]ET1 as radioligand; format: functional, cell-based
T1 sequence (P25101 whole entry): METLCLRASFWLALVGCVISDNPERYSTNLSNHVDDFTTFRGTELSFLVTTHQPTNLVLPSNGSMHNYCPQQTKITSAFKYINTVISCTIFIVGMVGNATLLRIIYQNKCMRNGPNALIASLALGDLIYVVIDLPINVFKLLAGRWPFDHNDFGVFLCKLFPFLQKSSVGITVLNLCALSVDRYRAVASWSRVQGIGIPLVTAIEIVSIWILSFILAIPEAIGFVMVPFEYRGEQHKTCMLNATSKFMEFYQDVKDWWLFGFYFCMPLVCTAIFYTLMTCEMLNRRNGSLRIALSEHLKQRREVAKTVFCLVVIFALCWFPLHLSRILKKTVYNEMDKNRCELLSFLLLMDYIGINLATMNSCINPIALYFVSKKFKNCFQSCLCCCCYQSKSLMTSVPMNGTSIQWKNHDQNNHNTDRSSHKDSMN

[1] = target: T2, Endothelin receptor type B (Homo sapiens, UniProt P24530); experiment: Antagonist activity towards human recombinant Endothelin B receptor expressed in chinese hamster ovary (CHO) cells determined using [125I]ET1 as radioligand; format: functional, cell-based
T2 sequence (P24530 whole entry): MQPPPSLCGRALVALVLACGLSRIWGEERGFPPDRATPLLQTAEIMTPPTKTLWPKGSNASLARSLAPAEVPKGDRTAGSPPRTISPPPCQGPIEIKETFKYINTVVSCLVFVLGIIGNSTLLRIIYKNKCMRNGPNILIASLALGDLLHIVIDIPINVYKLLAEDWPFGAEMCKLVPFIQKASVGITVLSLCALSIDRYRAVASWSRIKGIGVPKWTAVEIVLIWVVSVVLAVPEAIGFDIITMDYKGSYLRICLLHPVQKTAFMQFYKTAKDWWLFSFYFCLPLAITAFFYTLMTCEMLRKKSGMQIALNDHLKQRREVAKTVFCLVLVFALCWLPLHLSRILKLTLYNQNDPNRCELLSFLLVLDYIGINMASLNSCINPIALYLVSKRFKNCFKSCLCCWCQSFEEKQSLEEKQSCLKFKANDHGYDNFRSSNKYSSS

SMILES	IC50 (Endothelin-1 receptor) [nM]	IC50 [1] [nM]
Cc1cc(C)nc(O[C@H](C(=O)O)[C@@]2(c3ccccc3)NCc3nnc(CC(=O)O)n3-c3ccccc32)n1 (racemic)	58.8	261
Cc1cc(C)nc(O[C@H](C(=O)O)[C@@]2(c3ccccc3)NCC(=O)N(Cc3ccc(Cl)cc3)c3ccccc32)n1 (racemic)	17.3	122
Cc1ccccc1O[C@H](C(=O)O)[C@@]1(c2ccccc2)NCC(=O)N(Cc2c(Cl)cccc2Cl)c2ccccc21 (racemic)	> 10000	> 10000
COc1cc(OC)cc(O[C@H](C(=O)O)[C@@]2(c3ccccc3)NCC(=O)N(C)c3cc(OC)ccc32)c1 (racemic)	3950	7780
Cc1cc(C)nc(O[C@H](C(=O)O)[C@@]2(c3ccccc3)NCC(=O)N(CC3CCCCC3)c3ccccc32)n1 (racemic)	83.4	82
COc1cc(OC)cc(O[C@H](C(=O)O)[C@@]2(c3ccccc3)NCC(=O)N(C)c3ccccc32)c1 (racemic)	–	6270
CC(C)c1ccc(O[C@H](C(=O)O)[C@@]2(c3ccccc3)NCC(=O)N(Cc3c(Cl)cccc3Cl)c3ccccc32)cc1 (racemic)	> 10000	8620
Cc1ccc(CN2C(=O)CN[C@](c3ccccc3)([C@H](Oc3nc(C)cc(C)n3)C(=O)O)c3ccccc32)cc1 (racemic)	30.5	68.8
O=C(O)[C@@H](Oc1ccccc1)[C@@]1(c2ccccc2)NCC(=O)N(Cc2c(Cl)cccc2Cl)c2ccccc21 (racemic)	211	3700
CN1C(=O)CN[C@](c2ccccc2)([C@H](Oc2ncccn2)C(=O)O)c2ccccc21 (racemic)	–	> 10000
Cc1cc(C)cc(O[C@H](C(=O)O)[C@@]2(c3ccccc3)NCC(=O)N(Cc3c(Cl)cccc3Cl)c3ccccc32)c1 (racemic)	20.5	109
Cc1cc(C)nc(O[C@H](C(=O)O)[C@@]2(c3ccccc3)NCC(=O)N(Cc3ccc(Br)cc3)c3ccccc32)n1 (racemic)	25.8	119
Cc1cc(C)nc(O[C@H](C(=O)O)[C@@]2(c3ccccc3)NCC(=O)N(Cc3cc(F)cc(F)c3)c3ccccc32)n1 (racemic)	7.9	13.1
COc1ccc(CN2C(=O)CN[C@](c3cccc(F)c3)([C@H](Oc3nc(C)cc(C)n3)C(=O)O)c3ccccc32)cc1 (racemic)	9.1	49.3
Cc1cc(C)nc(O[C@H](C(=O)O)[C@@]2(c3ccccc3)NCC(=O)N(CCCc3ccccc3)c3ccccc32)n1 (racemic)	17.1	18.3
Cc1cc(C)nc(O[C@H](C(=O)O)[C@@]2(c3ccccc3)NCC(=O)N(CC3CC3)c3ccccc32)n1 (racemic)	7.3	87.8
O=C(O)[C@@H](Oc1cccc(Cl)c1)[C@@]1(c2ccccc2)NCC(=O)N(Cc2c(Cl)cccc2Cl)c2ccccc21 (racemic)	101	3150
Cc1cc(C)nc(O[C@H](C(=O)O)[C@@]2(c3ccccc3)NCC(=O)N(Cc3cccc(OC(F)(F)F)c3)c3ccccc32)n1 (racemic)	11	30.8
CN1C(=O)CN[C@](c2ccccc2)([C@H](Oc2ncc(Br)cn2)C(=O)O)c2ccccc21 (racemic)	927	9480
Cc1cc(C)nc(O[C@H](C(=O)O)[C@@]2(c3ccccc3)NCc3nnc(C)n3-c3ccccc32)n1 (racemic)	–	250
COc1cc(OC)nc(O[C@H](C(=O)O)[C@@]2(c3ccccc3)NCC(=O)N(C)c3ccccc32)n1 (racemic)	23.4	473

More lines, now with the values ahead:

IC50 (Endothelin-1 receptor) [nM]	IC50 [1] [nM]	SMILES
221	181	COc1ccc(CN2C(=O)CN[C@](c3ccc(C)cc3)([C@H](Oc3nc(C)cc(C)n3)C(=O)O)c3ccccc32)cc1
13	558	Cc1cc(C)nc(O[C@H](C(=O)O)[C@@]2(c3ccccc3)NCC(=O)N(CC(=O)O)c3ccccc32)n1 (racemic)
5920	> 10000	COc1ccccc1O[C@H](C(=O)O)[C@@]1(c2ccccc2)NCC(=O)N(Cc2c(Cl)cccc2Cl)c2ccccc21 (racemic)
8.9	55	Cc1cc(C)nc(O[C@H](C(=O)O)[C@@]2(c3ccccc3)NCC(=O)N(Cc3ccccc3C)c3ccccc32)n1 (racemic)
24.9	241	COc1ccc(CN2C(=O)CN[C@](c3cccc(C(F)(F)F)c3)([C@H](Oc3nc(C)cc(C)n3)C(=O)O)c3ccccc32)cc1 (racemic)
6.4	25.5	Cc1cc(C)nc(O[C@H](C(=O)O)[C@@]2(c3ccccc3)NCC(=O)N(Cc3cccc(Br)c3)c3ccccc32)n1 (racemic)
6	109	Cc1cc(C)nc(O[C@H](C(=O)O)[C@@]2(c3ccccc3)NCC(=O)N(Cc3ccc(F)cc3F)c3ccccc32)n1 (racemic)
384	9250	COc1cnc(O[C@H](C(=O)O)[C@@]2(c3ccccc3)NCC(=O)N(C)c3ccccc32)nc1 (racemic)
9.1	15.6	Cc1cc(C)nc(O[C@H](C(=O)O)[C@@]2(c3ccccc3)NCC(=O)N(Cc3cccc(C(F)(F)F)c3)c3ccccc32)n1 (racemic)
443	8030	COc1cc(OC)cc(O[C@H](C(=O)O)[C@@]2(c3ccccc3)NCC(=O)N(C)c3cc(OC)c(OC)cc32)c1 (racemic)
45.9	253	Cc1cc(C)nc(O[C@H](C(=O)O)[C@@]2(c3ccccc3)NCC(=O)N(CCCC(=O)O)c3ccccc32)n1 (racemic)
> 10000	> 10000	O=C(O)[C@@H](Oc1ccccc1Cl)[C@@]1(c2ccccc2)NCC(=O)N(Cc2c(Cl)cccc2Cl)c2ccccc21 (racemic)
> 10000	> 1000	Cc1ccc(C)c(O[C@H](C(=O)O)[C@@]2(c3ccccc3)NCC(=O)N(Cc3c(Cl)cccc3Cl)c3ccccc32)c1 (racemic)
–	80.2	COc1ccc(CN2C(=O)CN[C@](c3ccccc3F)([C@H](Oc3nc(C)cc(C)n3)C(=O)O)c3ccccc32)cc1 (racemic)
7.5	47.8	COCCOCN1C(=O)CN[C@](c2ccccc2)([C@H](Oc2nc(C)cc(C)n2)C(=O)O)c2ccccc21 (racemic)
387	1780	Cc1cc(C)nc(O[C@H](C(=O)O)[C@@]2(c3ccccc3)NCC(=O)N(CCN(C)C)c3ccccc32)n1 (racemic)
278	761	COc1ccc(CN2C(=O)CN[C@](c3cc(C)cc(C)c3)([C@H](Oc3nc(C)cc(C)n3)C(=O)O)c3ccccc32)cc1 (racemic)
3.7	18.5	Cc1cc(C)nc(O[C@H](C(=O)O)[C@@]2(c3ccccc3)NCC(=O)N(Cc3cccc(F)c3F)c3ccccc32)n1 (racemic)
5	16.7	Cc1cccc(CN2C(=O)CN[C@](c3ccccc3)([C@H](Oc3nc(C)cc(C)n3)C(=O)O)c3ccccc32)c1 (racemic)
> 10000	> 1000	Cc1cccc(O[C@H](C(=O)O)[C@@]2(c3ccccc3)NCC(=O)N(Cc3c(Cl)cccc3Cl)c3ccccc32)c1C (racemic)
6.7	32.9	Cc1cc(C)nc(O[C@H](C(=O)O)[C@@]2(c3ccccc3)NCC(=O)N(Cc3cc(F)ccc3F)c3ccccc32)n1 (racemic)
46.2	392	COc1cc(OC)cc(O[C@H](C(=O)O)[C@@]2(c3ccccc3)NCC(=O)N(Cc3c(Cl)cccc3Cl)c3ccccc32)c1 (racemic)
17.1	24.1	Cc1cc(C)nc(O[C@H](C(=O)O)[C@@]2(c3ccccc3)NCC(=O)N(Cc3ccc(C(C)(C)C)cc3)c3ccccc32)n1 (racemic)
91.7	7840	Cc1cc(C)nc(O[C@H](C(=O)O)[C@@]2(c3ccccc3)NCCCc3ccccc32)n1 (racemic)
3840	5600	COc1cc(OC)cc(O[C@H](C(=O)O)[C@@]2(c3ccccc3)NCC(=O)N(C)c3cc(Cl)ccc32)c1 (racemic)
123	3530	Cc1cc(C)nc(O[C@H](C(=O)O)[C@@]2(c3ccccc3)NCC(=O)N(Cc3ccc(C(=O)O)cc3)c3ccccc32)n1 (racemic)
10.2	48.1	Cc1cc(C)nc(O[C@H](C(=O)O)[C@@]2(c3ccccc3)NCC(=O)N(Cc3ccccc3Cl)c3ccccc32)n1 (racemic)
104	22.5	Cc1cc(C)nc(O[C@H](C(=O)O)[C@@]2(c3ccccc3)NCC(=O)N(Cc3ccccc3C(F)(F)F)c3ccccc32)n1 (racemic)
6.7	26.8	Cc1cc(C)nc(O[C@H](C(=O)O)[C@@]2(c3ccccc3)NCC(=O)N(Cc3cccc(F)c3)c3ccccc32)n1 (racemic)
69.8	3640	Cc1cc(C)nc(O[C@H](C(=O)O)[C@@]2(c3ccccc3)NCCOc3ccccc32)n1 (racemic)
